# From ChEMBL document CHEMBL1201862, “PubChem BioAssay data set” (2004)
# Structures can show the parent of a compound that is named as a salt. Calls of active or inactive are those of the source.
# Experiments:
# Vero = test: viability of Vero cells under compound – cytotoxicity control for flavivirus capping enzyme inhibitors (AID 588742); format: functional; conditions: Chlorocebus sabaeus
# [1] = molecular target: Heat shock protein HSP 90-alpha (Homo sapiens, UniProt P07900); format: functional, organism-based
# Genome polyprotein = Genome polyprotein (dengue virus type 2, UniProt P29990); test: flavivirus cap methylation enzyme inhibition – biochemical, confirmation dose response, primary screen (AID 588689); format: functional
# Sequence of Genome polyprotein (P29990 2492-3391 limits assumed): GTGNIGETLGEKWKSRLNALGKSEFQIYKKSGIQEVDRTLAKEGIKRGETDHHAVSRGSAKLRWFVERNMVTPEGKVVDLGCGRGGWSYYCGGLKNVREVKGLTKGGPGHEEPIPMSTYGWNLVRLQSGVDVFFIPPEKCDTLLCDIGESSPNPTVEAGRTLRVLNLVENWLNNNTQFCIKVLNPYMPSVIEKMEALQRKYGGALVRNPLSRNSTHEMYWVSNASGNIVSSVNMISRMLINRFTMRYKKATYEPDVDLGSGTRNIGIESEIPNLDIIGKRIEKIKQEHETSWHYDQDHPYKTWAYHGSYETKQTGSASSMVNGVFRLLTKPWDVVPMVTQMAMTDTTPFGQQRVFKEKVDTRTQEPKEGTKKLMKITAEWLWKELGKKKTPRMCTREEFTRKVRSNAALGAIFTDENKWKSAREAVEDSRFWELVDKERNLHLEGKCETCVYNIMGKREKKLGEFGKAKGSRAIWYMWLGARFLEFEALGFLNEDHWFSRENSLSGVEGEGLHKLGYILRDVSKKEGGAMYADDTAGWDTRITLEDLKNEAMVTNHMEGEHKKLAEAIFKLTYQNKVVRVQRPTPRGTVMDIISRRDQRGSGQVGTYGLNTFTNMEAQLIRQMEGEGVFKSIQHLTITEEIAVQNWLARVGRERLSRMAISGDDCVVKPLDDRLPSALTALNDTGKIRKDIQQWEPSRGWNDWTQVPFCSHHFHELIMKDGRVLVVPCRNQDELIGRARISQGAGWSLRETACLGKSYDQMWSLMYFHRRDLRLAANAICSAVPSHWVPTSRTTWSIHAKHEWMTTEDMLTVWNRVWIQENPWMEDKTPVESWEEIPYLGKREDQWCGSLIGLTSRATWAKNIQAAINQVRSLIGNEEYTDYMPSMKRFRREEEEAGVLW
# [2] = molecular target: Voltage-gated inwardly rectifying potassium channel KCNH2 (Homo sapiens, UniProt Q12809); conditions: Potency;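 note: confirmatory quantitative high-throughput screen measuring inhibition of hERG channel activity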
# Sequence of Voltage-gated inwardly rectifying potassium channel KCNH2 (Q12809 whole entry): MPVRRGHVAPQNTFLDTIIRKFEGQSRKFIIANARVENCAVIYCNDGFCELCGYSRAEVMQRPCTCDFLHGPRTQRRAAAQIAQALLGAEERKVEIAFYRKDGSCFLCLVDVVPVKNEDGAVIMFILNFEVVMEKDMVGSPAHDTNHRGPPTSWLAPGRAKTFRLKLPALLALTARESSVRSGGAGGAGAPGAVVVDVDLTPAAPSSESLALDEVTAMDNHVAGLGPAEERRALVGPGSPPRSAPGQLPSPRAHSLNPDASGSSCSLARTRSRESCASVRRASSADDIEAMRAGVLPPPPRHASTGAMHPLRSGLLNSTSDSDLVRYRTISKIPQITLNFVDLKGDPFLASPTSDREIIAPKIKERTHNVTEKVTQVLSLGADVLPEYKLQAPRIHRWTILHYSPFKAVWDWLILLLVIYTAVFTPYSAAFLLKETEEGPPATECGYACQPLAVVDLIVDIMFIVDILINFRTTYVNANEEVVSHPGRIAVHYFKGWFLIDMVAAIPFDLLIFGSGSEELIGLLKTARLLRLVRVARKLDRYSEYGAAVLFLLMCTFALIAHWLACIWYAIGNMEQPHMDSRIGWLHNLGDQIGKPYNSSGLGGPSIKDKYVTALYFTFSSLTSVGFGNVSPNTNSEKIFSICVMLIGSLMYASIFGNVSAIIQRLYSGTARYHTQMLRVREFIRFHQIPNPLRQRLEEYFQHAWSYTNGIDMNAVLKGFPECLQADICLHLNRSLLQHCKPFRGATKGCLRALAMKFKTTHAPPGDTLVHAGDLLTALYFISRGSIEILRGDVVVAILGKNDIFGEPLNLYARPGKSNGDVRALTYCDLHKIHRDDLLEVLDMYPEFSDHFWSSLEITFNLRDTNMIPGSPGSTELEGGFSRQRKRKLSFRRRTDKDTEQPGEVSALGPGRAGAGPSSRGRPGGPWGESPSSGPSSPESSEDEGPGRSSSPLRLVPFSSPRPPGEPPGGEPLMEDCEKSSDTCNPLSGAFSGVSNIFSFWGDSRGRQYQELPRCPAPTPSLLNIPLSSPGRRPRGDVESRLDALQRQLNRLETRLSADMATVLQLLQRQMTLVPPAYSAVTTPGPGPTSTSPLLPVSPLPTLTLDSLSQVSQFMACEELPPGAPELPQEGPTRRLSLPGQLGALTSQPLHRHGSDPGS
# [3] = molecular target: Beta-2 adrenergic receptor (Homo sapiens, UniProt P07550); test: ADRB2 activation measured by internalization – cell-based, FAP fluorogen, flow cytometry, cherry pick 1, dose response (AID 588763); format: functional
# Sequence of Beta-2 adrenergic receptor (P07550 whole entry): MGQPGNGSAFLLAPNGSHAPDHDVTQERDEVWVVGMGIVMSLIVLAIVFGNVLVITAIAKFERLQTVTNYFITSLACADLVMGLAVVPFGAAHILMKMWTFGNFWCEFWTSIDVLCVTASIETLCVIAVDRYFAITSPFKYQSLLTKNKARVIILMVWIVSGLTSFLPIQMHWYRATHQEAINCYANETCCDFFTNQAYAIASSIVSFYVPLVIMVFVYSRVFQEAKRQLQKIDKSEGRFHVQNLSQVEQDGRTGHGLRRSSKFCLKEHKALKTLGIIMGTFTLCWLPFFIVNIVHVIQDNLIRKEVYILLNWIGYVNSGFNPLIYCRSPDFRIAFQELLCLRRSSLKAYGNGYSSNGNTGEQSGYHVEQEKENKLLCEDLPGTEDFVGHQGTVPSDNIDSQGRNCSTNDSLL
# SUMO E1/E2 = SUMO E1/E2 (Homo sapiens, UniProt P63279+Q9UBE0+Q9UBT2); test: SAR analysis of SUMOylation using HTRF in an in-Vitro dose response assay. [Related pubchem assays (depositor defined):AID2006, AID2011, AID2018, AID2069, AID2658]; format: functional
# Sequence of SUMO E1/E2 (Q9UBE0 whole entry): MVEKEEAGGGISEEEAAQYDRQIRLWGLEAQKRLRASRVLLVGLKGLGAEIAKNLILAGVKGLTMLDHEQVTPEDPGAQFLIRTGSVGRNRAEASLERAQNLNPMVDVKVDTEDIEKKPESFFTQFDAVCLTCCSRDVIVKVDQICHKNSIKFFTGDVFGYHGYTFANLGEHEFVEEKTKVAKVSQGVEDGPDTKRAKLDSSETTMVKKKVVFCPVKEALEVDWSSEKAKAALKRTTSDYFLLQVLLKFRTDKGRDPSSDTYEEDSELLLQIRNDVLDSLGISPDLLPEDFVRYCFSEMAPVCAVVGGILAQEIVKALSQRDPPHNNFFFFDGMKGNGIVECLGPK
# Sequence of SUMO E1/E2 (Q9UBT2 whole entry): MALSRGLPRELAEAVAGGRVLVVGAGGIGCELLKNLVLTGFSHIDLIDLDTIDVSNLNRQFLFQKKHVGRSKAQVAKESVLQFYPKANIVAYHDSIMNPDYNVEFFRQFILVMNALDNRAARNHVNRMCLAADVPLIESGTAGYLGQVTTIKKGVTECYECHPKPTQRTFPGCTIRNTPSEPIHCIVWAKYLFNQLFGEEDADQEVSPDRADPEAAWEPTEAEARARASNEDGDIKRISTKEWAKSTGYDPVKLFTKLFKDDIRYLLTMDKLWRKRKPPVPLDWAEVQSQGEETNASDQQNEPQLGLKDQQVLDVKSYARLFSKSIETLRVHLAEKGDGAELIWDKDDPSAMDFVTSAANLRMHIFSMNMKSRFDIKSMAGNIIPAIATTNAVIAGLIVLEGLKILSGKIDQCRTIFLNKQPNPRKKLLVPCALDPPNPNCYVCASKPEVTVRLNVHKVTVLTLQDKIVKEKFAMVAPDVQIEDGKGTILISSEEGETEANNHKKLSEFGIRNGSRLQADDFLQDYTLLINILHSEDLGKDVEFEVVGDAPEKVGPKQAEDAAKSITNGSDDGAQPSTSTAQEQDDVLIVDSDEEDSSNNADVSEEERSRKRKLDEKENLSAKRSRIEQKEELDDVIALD
# Sequence of SUMO E1/E2 (P63279 whole entry): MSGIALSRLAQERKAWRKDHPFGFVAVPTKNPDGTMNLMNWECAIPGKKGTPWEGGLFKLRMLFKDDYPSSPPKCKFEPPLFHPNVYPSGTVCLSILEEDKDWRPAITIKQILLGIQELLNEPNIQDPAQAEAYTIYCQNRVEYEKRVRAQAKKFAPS
# [4] = non-specific 3'UTR reporter inhibition in Clone20-Shn3RL – cell-based, Renilla luciferase, cherry-picked, counter-screen for Shn3 inhibitor project, dose response (AID 624133); format: functional
# [5] = reduction of Shn3 3'UTR-driven luciferase in osteoblasts – cell-based, Clone20 osteoblasts, firefly luciferase, cherry-picked, dose response (AID 624132); format: functional;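 note: firefly luciferase luminescence from reporter carrying the Shn3 3'UTR in osteoblasts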
# [6] = Shn3 3'UTR reporter signal decrease – cell-based, Clone20 osteoblasts, firefly luciferase, cherry-pick, set 2, Schnurri-3 inhibitor project, dose response (AID 720490); format: functional;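 note: actives lower the luminescence signal as inhibitors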
# Tumor necrosis factor = Tumor necrosis factor (Homo sapiens, UniProt P01375); test: analog potency on TNFa NF-kB signaling – cell-based, set 3, SAR follow-up (AID 2801); format: functional
# Sequence of Tumor necrosis factor (P01375 whole entry, the tested form may be a part): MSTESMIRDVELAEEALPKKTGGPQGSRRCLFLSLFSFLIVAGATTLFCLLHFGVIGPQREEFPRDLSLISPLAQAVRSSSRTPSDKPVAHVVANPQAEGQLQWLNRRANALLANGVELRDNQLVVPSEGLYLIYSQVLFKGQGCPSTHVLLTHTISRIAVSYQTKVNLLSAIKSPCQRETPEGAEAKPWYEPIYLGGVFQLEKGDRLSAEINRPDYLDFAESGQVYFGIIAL
# [7] = molecular target: T1, Nucleotide-binding oligomerization domain-containing protein 1 (Homo sapiens, UniProt Q9Y239); test: SAR analysis of compounds that inhibit NOD1 - Set 3. [Related pubchem assays (depositor defined):AID1566, AID1575, AID1578, AID1849, AID1852, AID2333, AID2335, AID2466]; format: functional
# T1 sequence (Q9Y239 whole entry): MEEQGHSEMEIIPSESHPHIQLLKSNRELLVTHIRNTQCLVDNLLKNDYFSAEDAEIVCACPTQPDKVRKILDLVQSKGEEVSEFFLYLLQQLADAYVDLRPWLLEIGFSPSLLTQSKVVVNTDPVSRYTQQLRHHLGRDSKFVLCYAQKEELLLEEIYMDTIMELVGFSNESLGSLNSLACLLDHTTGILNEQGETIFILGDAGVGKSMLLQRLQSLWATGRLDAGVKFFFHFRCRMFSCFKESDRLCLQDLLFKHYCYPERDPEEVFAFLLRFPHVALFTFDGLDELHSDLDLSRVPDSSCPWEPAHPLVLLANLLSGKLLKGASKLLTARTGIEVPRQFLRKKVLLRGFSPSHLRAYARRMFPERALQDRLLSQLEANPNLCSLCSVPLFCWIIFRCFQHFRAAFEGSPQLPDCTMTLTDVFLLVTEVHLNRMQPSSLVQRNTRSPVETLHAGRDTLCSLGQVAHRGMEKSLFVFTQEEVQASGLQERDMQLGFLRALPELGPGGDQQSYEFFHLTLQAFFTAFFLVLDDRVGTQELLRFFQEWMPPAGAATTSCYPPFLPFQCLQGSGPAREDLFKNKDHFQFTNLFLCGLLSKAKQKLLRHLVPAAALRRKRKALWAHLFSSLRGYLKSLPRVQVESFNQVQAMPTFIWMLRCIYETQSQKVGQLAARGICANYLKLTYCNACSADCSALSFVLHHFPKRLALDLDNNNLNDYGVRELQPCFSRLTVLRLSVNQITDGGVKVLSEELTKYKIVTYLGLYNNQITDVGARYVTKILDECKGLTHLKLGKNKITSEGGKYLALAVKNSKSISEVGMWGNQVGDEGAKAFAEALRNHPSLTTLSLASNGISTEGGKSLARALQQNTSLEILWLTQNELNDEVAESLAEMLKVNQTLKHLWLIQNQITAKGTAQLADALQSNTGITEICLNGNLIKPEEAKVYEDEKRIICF
# HEK293 [8] = test: SAR analysis of compounds that are cytotoxic to HEK293 - Set 2. [Related pubchem assays (depositor defined):AID1575, AID1578, AID1849, AID2001, AID2333, AID2334, AID2335, AID2337, AID2800]; format: functional, cell-based; conditions: Homo sapiens
# [9] = molecular target: T1, Nucleotide-binding oligomerization domain-containing protein 1; test: SAR analysis of NF-kappaB dependent luciferase using DAP as an inducer - Set 2. [Related pubchem assays (depositor defined):AID1566, AID1575, AID1578, AID1579, AID1849, AID1852, AID2264]; format: functional
# Interleukin-8 [10] = molecular target: T2, Interleukin-8 (Homo sapiens, UniProt P10145); test: SAR analysis of GM-Tri-DAP induced IL-8 secretion in MCF-7/NOD1 cells - Set 2. [Related pubchem assays (depositor defined):AID1575, AID1578, AID2333]; format: functional, cell-based
# T2 sequence (P10145 whole entry): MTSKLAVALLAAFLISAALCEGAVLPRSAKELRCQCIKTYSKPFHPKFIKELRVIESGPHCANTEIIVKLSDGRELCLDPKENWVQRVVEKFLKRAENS
# [11] = molecular target: T1, Nucleotide-binding oligomerization domain-containing protein 1; test: SAR analysis of compounds that inhibit NOD1 - Set 2. [Related pubchem assays (depositor defined):AID1566, AID1575, AID1578, AID1849, AID1852, AID2333, AID2335, AID2798]; format: functional
# [12] = molecular target: T3, Nucleotide-binding oligomerization domain-containing protein 2 (Homo sapiens, UniProt Q9HC29); test: inhibition of NOD2 signaling – set 2, SAR follow-up (AID 2475); format: functional
# T3 sequence (Q9HC29 whole entry, the tested form may be a part): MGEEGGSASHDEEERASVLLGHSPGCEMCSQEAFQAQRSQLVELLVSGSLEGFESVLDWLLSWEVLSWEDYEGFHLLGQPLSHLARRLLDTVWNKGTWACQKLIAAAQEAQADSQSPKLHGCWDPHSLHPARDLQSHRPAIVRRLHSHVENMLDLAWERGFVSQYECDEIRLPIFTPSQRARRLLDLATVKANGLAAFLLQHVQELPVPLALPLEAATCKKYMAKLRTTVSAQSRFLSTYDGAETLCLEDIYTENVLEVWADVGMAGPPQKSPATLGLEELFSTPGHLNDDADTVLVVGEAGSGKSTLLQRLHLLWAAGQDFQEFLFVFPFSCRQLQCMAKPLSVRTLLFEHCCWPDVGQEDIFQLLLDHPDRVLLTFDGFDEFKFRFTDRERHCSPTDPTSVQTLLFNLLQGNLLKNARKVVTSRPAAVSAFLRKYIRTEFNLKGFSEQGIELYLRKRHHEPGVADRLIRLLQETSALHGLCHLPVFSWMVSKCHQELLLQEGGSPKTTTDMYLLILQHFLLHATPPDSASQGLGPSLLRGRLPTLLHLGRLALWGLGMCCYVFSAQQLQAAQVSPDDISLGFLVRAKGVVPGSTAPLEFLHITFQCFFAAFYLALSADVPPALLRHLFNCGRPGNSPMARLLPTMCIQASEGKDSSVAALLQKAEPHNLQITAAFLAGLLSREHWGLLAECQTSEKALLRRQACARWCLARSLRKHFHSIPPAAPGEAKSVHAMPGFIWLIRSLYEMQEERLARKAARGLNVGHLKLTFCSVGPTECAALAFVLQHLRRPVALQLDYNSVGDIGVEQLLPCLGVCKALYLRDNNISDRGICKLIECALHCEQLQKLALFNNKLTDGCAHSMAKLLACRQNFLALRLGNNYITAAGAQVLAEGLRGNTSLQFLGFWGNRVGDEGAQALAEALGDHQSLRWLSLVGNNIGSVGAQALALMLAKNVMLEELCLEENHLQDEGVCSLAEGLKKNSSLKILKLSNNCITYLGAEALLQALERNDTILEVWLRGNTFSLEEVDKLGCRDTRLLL
# [13] = molecular target: T3, Nucleotide-binding oligomerization domain-containing protein 2; test: inhibition of MDP-driven NOD2 NF-kB reporter – cell-based, set 3, SAR follow-up (AID 2799); format: functional
# HEK293 [14] = test: SAR analysis of compounds that are cytotoxic to HEK293 - Set 3. [Related pubchem assays (depositor defined):AID1575, AID1578, AID1848, AID1849, AID2001, AID2333, AID2334, AID2335, AID2337, AID2469]; format: functional, cell-based; conditions: Homo sapiens
# Interleukin-8 [15] = molecular target: T2, Interleukin-8; test: SAR analysis of Tumor necrosis factor alpha (TNF-alpha) induced IL-8 secretion in MCF-7/NOD1 cells - Set 2. [Related pubchem assays (depositor defined):AID1575, AID2250, AID2260]; format: functional, cell-based
# [16] = viability of HCT116 lacking mutant beta-catenin – cell-based, human colon tumor, dose response (AID 1045); format: functional;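 note: HCT116 colon tumor cells with beta catenin knocked out; cells exposed to compound for 60 hours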
# [17] = viability of PTEN-deleted HCT116 cells – cell-based, HCT116 PTEN knockout, dose response (AID 1047); format: functional;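 note: HCT116 colon tumor cells with PTEN knocked out; cells exposed to compound for 60 hours before readout; potency for loss of cell viability measured by luminescence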
# HEK293 [18] = test: cells; conditions: Homo sapiens
# HEK293 [19] = test: cells; conditions: Homo sapiens; remark: listed apart in the source
smiles,measurement,setting,value
CC(=O)N(C(C)=O)N1C(=O)/C(=C/c2ccc(Cl)cc2)SC1=S,CC50,Vero,> 40 µM (active)
same,AC50,[1],1.34 µM (active)
same,IC50,Genome polyprotein,23.5 µM (active)
Nc1nc2c(nc(Br)n2C2O[C@H]3CO[P@@](=O)(O)O[C@@H]3C2O)c(=O)[nH]1 (some centres not stated),AC50,[2],5.62 µM (inconclusive)
COc1ccccc1OCCCC(=O)Nc1nccs1,EC50,[3],5.11 µM (active)
COc1ccccc1CNC(=O)COC(=O)c1cc(-c2cccs2)nc2ccccc12,IC50,SUMO E1/E2,30.1 µM (active)
Cc1ccc(-c2nc3ncccc3o2)cc1NC(=O)c1sc2ccccc2c1Cl,AC50,[4],36.5 µM (active)
same,AC50,[5],5.87 µM (active)
same,EC50,[3],0.722 µM (active)
same,AC50,[6],11.8 µM (active)
C/C=C/Cn1c(SCc2ccc(Cl)cc2)nc2c1c(=O)[nH]c(=O)n2C,IC50,Tumor necrosis factor,> 20 µM (inactive)
same,IC50,[7],> 20 µM (inactive)
same,IC50,HEK293 [8],> 20 µM (inactive)
same,IC50,[9],> 25 µM (inactive)
same,IC50,Interleukin-8 [10],> 25 µM (inactive)
same,IC50,[11],14.7 µM (active)
same,IC50,[12],13.7 µM (active)
same,IC50,[13],> 20 µM (inactive)
same,IC50,HEK293 [14],> 20 µM (inactive)
same,IC50,Interleukin-8 [15],> 25 µM (inactive)
Nc1c2c(nc3ccccc13)CCCC2O (configuration not stated) [VELNACRINE MALEATE],AC50,[2],35.5 µM (inconclusive)
COc1ccc(-c2[nH]c(-c3ccc(Cl)cc3)nc2SCC(=O)Nc2nccs2)cc1,EC50,[16],15.3 µM (active)
same,EC50,[17],15.9 µM (active)
same,EC50,HEK293 [18],> 59.7 µM (inactive)
same,EC50,HEK293 [19],> 59.7 µM (inactive)
CCOC(=O)CN=C(S)N(Cc1cccs1)C1CCCCC1,EC50,HEK293 [18],> 59.6 µM (inactive)
same,EC50,HEK293 [19],> 59.6 µM (inactive)
